Regarding `CC(=O)[C@@]1(O)CC[C@H]2[C@@H]3CCC4=CC(=O)CC[C@]4(C)[C@H]3CC[C@@]21C`, the melting point was determined as 222 °C.
The same measure, in the same setting: the result for `CC(C(=O)O)c1ccc(N2Cc3ccccc3C2=O)cc1` (stereo not given) reads 214 °C.
Consider `Cc1ccccc1C(C)C`, for which the boiling point was found to be 178 °C, the log10 vapour pressure (mmHg) is 0.176, the melting point was -71.5 °C and the ready biodegradability entry is “not readily biodegradable”.
Molecule `Oc1ccc2c(c1)CCCC2` displayed a boiling point of 276 °C and a melting point of 57 °C.
The molecule `Cc1nccc2c1[nH]c1ccccc12` had a melting point of 236 °C.
Take `CCCCCCC(C=O)=Cc1ccccc1`: the melting point worked out at 39.2 °C.
For the molecule `O=Cc1cc([N+](=O)[O-])ccc1O`, the melting point stood at 129 °C.
`CNC(=O)Oc1cc(C)cc(C)c1`: the log10 Koc (L/kg) came to 1.71, the log10 vapour pressure (mmHg) is -3.44, the melting point worked out at 99 °C and the ready biodegradability result was “not readily biodegradable”.
Regarding `Clc1ccc(Oc2ccc(Cl)cc2)cc1`, the boiling point is 313 °C, the log10 vapour pressure (mmHg) was -3.3 and the melting point was found to be 30 °C.
For `O=C(NC(=O)c1ccccc1Cl)Nc1ccc(OC(F)(F)F)cc1`, the log10 vapour pressure (mmHg) was -9.52 and the melting point came to 195 °C.
In the case of `CCN(CC)c1nc(Cl)nc(N(CC)CC)n1`, the melting point was found to be 27 °C.
Consider `COc1cc(O)c(C(C)=O)c(OC)c1`, for which the melting point amounted to 82 °C.
Same read-out and setting: the result for `CN1CCC2=C(C1)C(c1ccccc1)c1ccccc12` (stereo not given) reads 91 °C.
Regarding `CCC(O)C(CC(C)N(C)C)(c1ccccc1)c1ccccc1` (stereo not given), the melting point is 127 °C.
The same measure, in the same setting: then `O=NN1CCC[C@H]1c1cccnc1`, with 47 °C.
`C=C(C)C(=O)Cl` showed a boiling point of 96 °C and a melting point of -60 °C.
The molecule `Clc1ccc(C(c2ccccc2Cl)C(Cl)(Cl)Cl)cc1` (stereo not given) had a log10 Koa of 9.45 and a log10 vapour pressure (mmHg) of -5.87.
On to `C=Cc1ccccc1OC`, for which the boiling point was 197 °C and the melting point was determined as 29 °C.
In the case of `C=C1CC(=O)OC1=O`, the melting point amounted to 69 °C.
`Cn1cccc1-c1cccnc1` registered a boiling point of 281 °C.
`CC1(C)C(=O)N(Br)C(=O)N1Cl` returned a melting point of 164 °C.
Still for that read-out and setting: then `Cc1ccc([N+](=O)[O-])cc1N`, with 106 °C.
Same read-out and setting: then `NS(=O)(=O)c1cc(C(=O)O)ccc1Cl`, with 257 °C.
Take `OCCNC(=S)C(=S)NCCO`: the melting point was 93.3 °C.
On the same count and under the same terms, then `CN(C)c1ccncc1`, with 112 °C; and `CC(O)[C@H]1CC[C@H]2[C@@H]3CC[C@@H]4C[C@@H](O)CC[C@]4(C)[C@H]3CC[C@]12C` (stereo not given in full), with 244 °C.
In the case of `CCCCCCCCc1ccccc1Nc1ccccc1CCCCCCCC`, the ready biodegradability entry is on record as “not readily biodegradable”.
In turn, `O=c1[nH]cc(C(F)(F)F)c(=O)[nH]1` returned a melting point of 316 °C.
In the case of `COc1c2occc2cc2ccc(=O)oc12`, the melting point was found to be 148 °C and the ready biodegradability result is recorded as “not readily biodegradable”.
As to `Cc1ccccc1NC(=O)c1ccccc1`, the melting point amounted to 146 °C.
Consider `Cc1ccc(CN)cc1`, for which the boiling point amounted to 195 °C and the melting point is 12.5 °C.
In turn, `CC(Cc1ccc(C(C)(C)C)cc1)CN1CCCCC1` (stereo not given) displayed a log10 vapour pressure (mmHg) of -3.89.
As to `C=C(C)C(OC(C)=O)OC(C)=O`, the boiling point is 191 °C.
Same read-out and setting: then `CCOC(=O)C1CC1`, with 134 °C; and `C=C(CC)C(C)CC` (stereo not given), with 112 °C.
Still for that read-out and setting: the result for `C=C(C)F` reads -24 °C.
Molecule `CCCOC(=O)CCC` came in with a boiling point of 143 °C, a log10 vapour pressure (mmHg) of 0.775 and a melting point of -95.2 °C.
Take `c1ccc2c(c1)-c1cc3ccccc3c3cc4ccccc4c-2c13`: the melting point came to 232 °C.
`CCC(CO)CC(C)C` (stereo not given): the log10 vapour pressure (mmHg) was -0.625.
As to `C1CSCSC1`, the melting point stood at 54 °C.
On to `CC(Br)CCBr` (stereo not given), for which the boiling point turned out to be 174 °C.
On to `O=C(O)c1cnc(O)nc1O`, for which the melting point was determined as 283 °C.
On to `FC(F)(F)C(F)(F)C(F)(F)I`, for which the boiling point was determined as 41.2 °C and the melting point is -95 °C.
In the case of `COc1cccc(S)c1`, the boiling point stood at 224 °C.
`CCCCCCCCCCCCCCCCCCCCCC` came in with a boiling point of 369 °C, a log10 biodegradation half-life (days) of 2.1, a log10 vapour pressure (mmHg) of -5.89 and a melting point of 44.4 °C. For the same molecule, the ready biodegradability entry is given as “readily biodegradable”.
The molecule `NC(=O)C[C@H](O)C(=O)O` showed a melting point of 148 °C.
The molecule `Clc1ccc2ccc(Cl)c(Cl)c2c1Cl` had a log10 Koa of 8.65.
Molecule `C[C@@H]([C@H](O)c1ccccc1)N(C)C` registered a melting point of 87.5 °C.
Same read-out and setting: the result for `COC1=CC=C2[C@H]3Cc4ccc(OC)c5c4[C@@]2(CCN3C)[C@H]1O5` reads 193 °C.
`CC(C)c1cccc(O)c1O` returned a melting point of 47 °C.
`CCOC(=O)C=Cc1ccc([N+](=O)[O-])cc1`: the melting point is 139 °C.
In the case of `C#CC=C`, the boiling point worked out at 5.1 °C and the log10 vapour pressure (mmHg) was 3.13.
Molecule `Cc1ccc(C)c2c1C(=O)c1ccccc1C2=O` displayed a melting point of 140 °C.
For `CCCC1CC1`, the boiling point is 69.1 °C.
Take `c1ccc2c(c1)c1ccccc1c1ccccc21`: the boiling point turned out to be 425 °C, the log10 biodegradation half-life (days) stood at 2.58, the log10 vapour pressure (mmHg) is -7.68 and the melting point came to 199 °C.
Molecule `Clc1cccc2c(Cl)cccc12` came in with a log10 Koa of 6.65 and a melting point of 107 °C.
`CCCOc1ccccc1` displayed a boiling point of 190 °C and a melting point of -27 °C.
On the same counts, the results for `Clc1ccc(Cc2ccccc2)cc1` are 299 °C and 7.5 °C.
Turning to `CCC(CO)(CO)COCC(CC)(CO)CO`, the melting point is 110 °C and the ready biodegradability entry is on record as “not readily biodegradable”.
In turn, `C1CC[C@H]2CCC[C@@H]2C1` (racemic) displayed a boiling point of 167 °C and a melting point of -53 °C.
The molecule `CCCCCCCCCCCCC(=O)OC` came in with a log10 vapour pressure (mmHg) of -2.89 and a melting point of 6.5 °C.
Consider `O=c1[nH]cc(F)c(=O)[nH]1`, for which the melting point came to 283 °C.
Molecule `CS(=O)(=O)c1ccc(-c2cn3ccccc3n2)cc1` yielded a melting point of 243 °C.

What is called melting point is the temperature of the solid-liquid transition. As usually defined, the boiling point is the temperature of boiling at a given pressure.

The values are drawn from the OPERA property sets (Mansouri et al. 2018).
